Experimental data published in US20220338473A1, “USE OF BENZYL ALCOHOL AS A HERBICIDE” (INNOVI, priority 2019, published 2022).

Key:
Type in all cases: in vivo
Mustard = assay: Early post-emergence herbicide activity, visual rating of symptoms; conditions: cotyledon stage, average of 5 pots
From the text: The soil is composed of 50% agricultural soil and 50% vermiculite.
Mustard seeds are sown in a Petri dish up to the stage of emergence of the radicle. The pre-germinated seeds are placed 1 cm deep in 8 cm×8 cm pots at a rate of 5 seeds per pot and 5 pots/repetitions per condition (treated plants and control plants).
On appearance of the cotyledons, the treatment is applied using a spraying bench simulating an outdoor treatment.
The spraying volume of 200 L/ha.
An untreated control (water alone) is added.
The cultivation conditions are 15° C. during the night/20° C. during the day with a photoperiod of 14 hours (light intensity of approximately 300 μmol/s/m^2).
A visual rating of the symptoms at 1, 3 and 7 days after treatment is carried out for the treated plants.
Each value is an average value calculated over 5 pots per condition.

Pink petunia = assay: Foliar application (spraying) on potted plants; conditions: 0.4 g benzyl alcohol (20 L/Ha) in 4 g total (200 L/ha)
Description: (§1) Assays were carried out on different plants by foliar application (spraying) to evaluate the herbicide function, its foliar application mode and its speed of action.
(§2) The assays were carried out on potted plants. The application of the product is carried out with a trigger spray bottle which makes it possible to spray 1 g of product per spraying as microdroplets.
(§3) The plants were sprinkled with different quantities of water containing different quantities of pure benzyl alcohol (PanReac AppliChem—ITW Reagents). The untreated (control) plants are sprinkled with the same total quantity, but of water only.
(§4) The collapsing of the plant, the colour intensity of the plant and the diameter of the plant were measured in the following manner: • Collapsing of the plant: the collapsing was evaluated on a scale of 1 to 5. A score of 5 corresponds to the state of the plant habit at T0 and 1 corresponds to a total collapsing of the plant. • Colour intensity: the colour of the plant (leaves and flowers) is evaluated on a scale of 1 to 5. A score of 5 corresponds to the colour intensity of the plant at T0 and a score of 1 corresponds to a total discoloration of the plant (white or brown according to the type of plant). • Diameter of the plant: the diameter of the plant corresponds to the surface area occupied by the plant seen from above and is evaluated by a score of 1 to 5. A score of 5 corresponds to the diameter of the plant at T0 and a score of 1 corresponds to the size of the pot (or smaller than this).

Dahlia = assay: Foliar application (spraying) on potted plants; conditions: 2 g benzyl alcohol (100 L/Ha) in 20 g total (1000 L/ha)
Description: as §1, §2, §3, §4

Ivy = assay: Foliar application (spraying) on potted plants; conditions: 16 g benzyl alcohol (800 L/Ha) in 20 g total (1000 L/Ha)
Description: as §1, §2, §3, §4

Petunia = assay: Inter-row cultivation herbicide activity: effect on untreated adjacent plant; parameters: key: yes: the dose and the mode of use when use in intercrop cultivation is prescribed; indicates that it is not
Description: Pure benzyl alcohol was used (PanReac AppliChem—ITW Reagents).
Two plants (Petunia) were planted with a spacing of 20 cm. Only one of the plants is treated, either in a foliar manner or by sprinkling in different concentrations (10 L/Ha, 20 L/Ha, 50 L/Ha, 100 L/Ha, 200 L/Ha, 300 L/Ha, […], 500 L/Ha, 600 L/Ha).

[1] = system: Chenopodium album (CHEAL); assay: Systemic action through contact with the leaves: metabolic activity by epifluorescence microscopy; conditions: 20 L/ha, control group 5
Description: Chenopodium album (CHEAL) seeds are sown in Petri dishes in vermiculite moistened with a 0.2% solution of […]. The dishes are incubated in a climatic chamber at 15° C./20° C. night/day and 14 h photoperiod up to the stage of emergence of the cotyledons. The plantlets are then transplanted, at a rate of 6 plants per pot and 5 pots in each of the groups (treated group and control group), in a mixture of agricultural earth:vermiculite (50:50).
The plantlets are cultivated under the same environmental conditions as previously up to the stage BBCH12-14.
The plants are treated with benzyl alcohol at the stage BBCH12-14 with a dose of 20 L/ha benzyl alcohol with 660 g/I water, i.e. 13.2 kg benzyl alcohol/ha.
The product is applied in a volume corresponding to 300 L/ha using a spraying bench equipped with agricultural nozzles (Turbo Teejet TTII0015).
After treatment, the plants are returned to cultivation in a climatic chamber at 15° C./20° C. night/day and 14 h photoperiod.
A control group is not treated and only receives water.
[…] observations were carried out by epifluorescence microscopy on the leaves and the roots of the treated plants and the control plants, 24 h and 7 days after treatment on the leaves.
The results observed on the epifluorescence microscopy images are reported in Tables 11 and 12 below, in which a mark of 0 to 5 is attributed depending on the intensity and the surface area of the fluorescence observed, where 0=no metabolic activity, and 5=complete metabolic activity.
Before uprooting and epifluorescence microscopy analysis, the treated plants were divided into 2 groups: • Group 1: plants not showing or showing few symptoms of drying on the treated area (leaf) • Group 2: plants having a dry leaf on the treated area (leaf)

[2] = 24 h after leaf spraying, Group 1 (no or few symptoms of drying)
[3] = 24 h after leaf spraying, Group 2 (dry leaf on treated area)
[4] = 7 days after leaf spraying, Group 1 (no or few symptoms of drying)
[5] = 7 days after leaf spraying, Group 2 (dry leaf on treated area)

Compound: OCc1ccccc1 [benzyl alcohol]
- Visual rating of the symptoms (0 = similar to control, 100 = dead plant) (Mustard; 30 L/ha active material, 1 day after treatment): 3
- Visual rating of the symptoms (0 = similar to control, 100 = dead plant) (Mustard; 30 L/ha active material, 3 days after treatment): 21
- Visual rating of the symptoms (0 = similar to control, 100 = dead plant) (Mustard; 30 L/ha active material, 7 days after treatment): 81
- Visual rating of the symptoms (0 = similar to control, 100 = dead plant) (Mustard; 40 L/ha active material, 1 day after treatment): 59
- Visual rating of the symptoms (0 = similar to control, 100 = dead plant) (Mustard; 40 L/ha active material, 3 days after treatment): 82
- Visual rating of the symptoms (0 = similar to control, 100 = dead plant) (Mustard; 40 L/ha active material, 7 days after treatment): 93
- Visual rating of the symptoms (0 = similar to control, 100 = dead plant) (Mustard; 60 L/ha active material, 1 day after treatment): 63
- Visual rating of the symptoms (0 = similar to control, 100 = dead plant) (Mustard; 60 L/ha active material, 3 days after treatment): 92
- Visual rating of the symptoms (0 = similar to control, 100 = dead plant) (Mustard; 60 L/ha active material, 7 days after treatment): 100
- Collapsing of treated plant (score and time): time to pass from score 5 (T0) to score 1 (Pink petunia): 1 to 72 h
- Colour intensity of treated plant (score and time): time to pass from score 5 (T0) to score 1 (Pink petunia): 1 to 48 h
- Diameter of treated plant (score and time): time to pass from score 5 (T0) to score 1 (Pink petunia): 1 to 96 h
- Collapsing of treated plant (score and time): time to pass from score 5 (T0) to score 1 (Dahlia): 1 to 48 h
- Colour intensity of treated plant (score and time): time to pass from score 5 (T0) to score 1 (Dahlia): 1 to 24 h
- Diameter of treated plant (score and time): time to pass from score 5 (T0) to score 1 (Dahlia): 1 to 72 h
- Collapsing of treated plant (score and time): time to pass from score 5 (T0) to score 1 (Ivy): 1 to 96 h
- Colour intensity of treated plant (score and time): time to pass from score 5 (T0) to score 1 (Ivy): 1 to 48 h
- Diameter of treated plant (score and time): time to pass from score 5 (T0) to score 1 (Ivy): 1 to 96 h
- Inter-row use possible (untreated plant at 20 cm does not collapse) (Petunia; foliar, 50 L/Ha): no
- Inter-row use possible (untreated plant at 20 cm does not collapse) (Petunia; foliar, 100 L/Ha): no
- Inter-row use possible (untreated plant at 20 cm does not collapse) (Petunia; foliar, 200 L/Ha): no
- Inter-row use possible (untreated plant at 20 cm does not collapse) (Petunia; foliar, less than 50 L/Ha): no
- Inter-row use possible (untreated plant at 20 cm does not collapse) (Petunia; sprinkling, 50 L/Ha): yes
- Inter-row use possible (untreated plant at 20 cm does not collapse) (Petunia; sprinkling, 100 L/Ha): yes
- Inter-row use possible (untreated plant at 20 cm does not collapse) (Petunia; sprinkling, 200 L/Ha): no
- Inter-row use possible (untreated plant at 20 cm does not collapse) (Petunia; sprinkling, less than 50 L/Ha): yes
- Metabolic activity on the leaves (mark 0 to 5; 0=no, 5=complete metabolic activity) [1, 2]: 1
- Metabolic activity on the roots (mark 0 to 5; 0=no, 5=complete metabolic activity) [1, 2]: 2
- Metabolic activity on the leaves (mark 0 to 5; 0=no, 5=complete metabolic activity) [1, 3]: 1
- Metabolic activity on the roots (mark 0 to 5; 0=no, 5=complete metabolic activity) [1, 3]: 2.5
- Metabolic activity on the leaves (mark 0 to 5; 0=no, 5=complete metabolic activity) [1, 4]: 0.5
- Metabolic activity on the roots (mark 0 to 5; 0=no, 5=complete metabolic activity) [1, 4]: 1.5
- Metabolic activity on the leaves (mark 0 to 5; 0=no, 5=complete metabolic activity) [1, 5]: 0
- Metabolic activity on the roots (mark 0 to 5; 0=no, 5=complete metabolic activity) [1, 5]: 2
